This note sets out measurements from ChEMBL document CHEMBL1126005 (Bioorg Med Chem Lett, 1991).

The target of assay [1] is T1, Adenosine receptor A1 (Rattus norvegicus, UniProt P25099).
T1 sequence (P25099 whole entry): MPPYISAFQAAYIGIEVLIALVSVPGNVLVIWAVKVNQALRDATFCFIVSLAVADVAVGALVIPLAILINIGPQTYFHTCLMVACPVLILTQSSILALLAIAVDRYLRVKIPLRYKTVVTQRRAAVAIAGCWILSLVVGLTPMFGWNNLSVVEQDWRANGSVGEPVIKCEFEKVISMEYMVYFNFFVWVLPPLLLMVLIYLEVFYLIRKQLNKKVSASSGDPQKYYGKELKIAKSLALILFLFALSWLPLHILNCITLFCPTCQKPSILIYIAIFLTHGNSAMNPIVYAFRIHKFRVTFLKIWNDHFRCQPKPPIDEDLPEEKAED
Briefly: biochemical.

The target of assay [2] is Adenosine A2 receptor (Rattus norvegicus, UniProt P29276+P30543).

Broadly, the Ki is a measure of affinity in units of concentration, obtained from inhibition or displacement. Low readings indicate a stronger hold on the target, high ones a looser hold on the target.

Regarding `OC[C@H]1OC(n2cnc3c(NC4CCCCCC4)nc(O)nc32)[C@H](O)[C@@H]1O` (some centres undefined), the Ki in assay [1] turned out to be 70 nM; in assay [2], 6000 nM.

With `OC[C@H]1OC(n2cnc3c(NC4CCCC4)nc(I)nc32)[C@H](O)[C@@H]1O` (some centres undefined), the Ki in assay [1] came to 20 nM; in assay [2], 40000 nM.

On to `OC[C@H]1OC(n2cnc3c(NC4CCCC4)nc(O)nc32)[C@H](O)[C@@H]1O` (some centres undefined), for which the Ki in assay [1] turned out to be 19 nM; in assay [2] it was 7500 nM.

For the compound `OC[C@H]1OC(n2cnc3c(NC4CCC4)nc(O)nc32)[C@H](O)[C@@H]1O` (some centres undefined), the figures for the Ki in assay [1] and in assay [2] were 55 nM and 15000 nM, respectively.

Regarding `OC[C@H]1OC(n2cnc3c(NC4CC5CCC4C5)nc(O)nc32)[C@H](O)[C@@H]1O` (some centres undefined), the figures for the Ki in assay [1] and in assay [2] were 35 nM and 80000 nM, respectively.

Consider `OC[C@H]1OC(n2cnc3c(NC4CCCCC4)nc(O)nc32)[C@H](O)[C@@H]1O` (some centres undefined), for which the Ki came to 40 nM in assay [1] and 15000 nM in assay [2].

As to `OC[C@H]1OC(n2cnc3c(NC4CCC5CCCCC5C4)nc(O)nc32)[C@H](O)[C@@H]1O` (some centres undefined), the inhibition constant Ki came to 30000 nM in assay [1] and 140000 nM in assay [2].
